Measured values reported in patent US12310947B2, “Methods and compositions for unsilencing imprinted genes” (priority 2019, dated 2025).
“Also recorded” adds a separate entry of the source. Each block holds one molecule with its values, some of them ahead of it.

Tests used:
paternal Ube3a-YFP [1] = test: Western blot of UBE3A-YFP protein (anti-GFP) in Ube3a^m+/pYFP cortical neurons; assay type: cell-based, mouse; conditions: Topotecan 0.3 μM, PHA533533 1.0 μM; for UBE3A-YFP protein from the paternal allele (western blot): 72 hr, Compound X 0.5 μM, Compound Y 0.5 μM, EPZ5676 3 μM, EPZ5676 1 μM with P5-A4 1 μM, analogues 1 μM; for unsilencing of paternal Ube3a-YFP with CDK2 knocked down: CDK2 shRNA knockdown; for unsilencing of paternal Ube3a-YFP with CDK5 knocked down: CDK5 shRNA knockdown
Description: Cultured cortical neurons were infected at DIV 3 and virus was removed the next day (DIV 4). Neurons were further cultured and treated at DIV 10 with vehicle (0.1% DMSO) or the indicated compounds. To perform western blot analysis, the cultured neurons from 6-well plates were harvested and total protein was extracted with protein extraction buffer 72 hr after drug treatment, Bradford assays were performed to measure protein concentration, and 30 μg of total protein was loaded for Bis-polyacrylamide gel electrophoresis (Bio-Rad). Electrophoresed proteins were transferred to nitrocellulose membrane (0.45 μm, Bio-Rad). Membranes were blocked with 5% non-fat milk in 1×TBS-T at room temperature for 30 min followed by overnight 4° C. incubation with primary antibodies [rabbit anti-GFP (1:1000, Novus Biologicals), rabbit anti-Ube3a (1:1000, Bethyl Lab), rabbit anti-H3K79Me2 (1:1000, Abcam), rabbit anti-H3K79Me3 (1:1000, Abcam), and mouse anti-β-actin (1:5000, Sigma)]. The next day, the immunoblot membranes were rinsed with 1×TBS-T three times and incubated with HPR-conjugated secondary antibodies for 1 hr at room temperature (goat anti-rabbit @ 1:1000 or goat anti-mouse @ 1:1000, Vector Labs). Following secondary antibody incubation, the membranes were rinsed (4-5 times) with 1×TBS-T at room temperature for 1 hr and ECL (Bio-Rad) was used to visualize detected proteins using an Amersham Imager 600 (AI600, GE Life Sciences).

DOT1L = test: Western blot of H3K79 methylation (anti-H3K79me2, anti-H3K79me3) in cortical neurons; assay type: cell-based, mouse; conditions: PHA533533 1.0 μM, Compound X 0.5 μM, EPZ5676 3 μM
Excerpt: shRNA knockdown and western blot analysis: Lentiviral shRNAs of Top1 (TRCN0000011884), CDK2 (TRCN0000023146), and CDK5 (TRCN0000009520) were generated using previously described techniques. Cultured cortical neurons were infected at DIV 3 and virus was removed the next day (DIV 4). Neurons were further cultured and treated at DIV 10 with vehicle (0.1% DMSO) or the indicated compounds. To perform western blot analysis, the cultured neurons from 6-well plates were harvested and total protein was extracted with protein extraction buffer 72 hr after drug treatment, Bradford assays were performed to measure protein concentration, and 30 μg of total protein was loaded for Bis-polyacrylamide gel electrophoresis (Bio-Rad). Electrophoresed proteins were transferred to nitrocellulose membrane (0.45 μm, Bio-Rad). Membranes were blocked with 5% non-fat milk in 1×TBS-T at room temperature for 30 min followed by overnight 4° C. incubation with primary antibodies [rabbit anti-GFP (1:1000, Novus Biologicals), rabbit anti-Ube3a (1:1000, Bethyl Lab), rabbit anti-H3K79Me2 (1:1000, Abcam), rabbit anti-H3K79Me3 (1:1000, Abcam), and mouse anti-β-actin (1:5000, Sigma)]. […] Following secondary antibody incubation, the membranes were rinsed (4-5 times) with 1×TBS-T at room temperature for 1 hr and ECL (Bio-Rad) was used to visualize detected proteins using an Amersham Imager 600 (AI600, GE Life Sciences).

paternal Ube3a-YFP [2] = test: High-content imaging of paternal UBE3A-YFP in cultured cortical neurons (GFP antibody-enhanced fluorescence); assay type: cell-based, mouse; conditions: for percent of neurons expressing UBE3A-YFP above threshold: cultured mouse cortical neurons, 72 hr treatment, n=4, DMSO control 0.03±0.004%; for unsilencing of paternal Ube3a-YFP by imaging, in words: library screen at 1 μM or dose response, 72 hr
Description: (§1) Cell culture and drug treatment: Primary cortical neurons were isolated and cultured by following established protocol. Briefly, cortical neurons were isolated from embryos (E13.5-15.5) carrying paternal Ube3a-YFP (Ube3a^m+/pYFP) or maternal deletion of Ube3a (Ube3a^m−/p+). Isolated cortical neurons were plated onto 384-well plates coated with poly-D-lysine (2.0×10^4 cell/well) for high-content imaging analysis or 6-well plates coated with poly-D-lysine (1.0×10^6 cells/well) for molecular and biochemical assays (western blot analysis, quantitative RT-PCR, and shRNA knockdown). Cultured neurons were maintained for 7 days, replacing medium every 3-4 days. On day 7 (DIV 7), the indicated compounds were added at 0.3-1 μM to neurons for 72 hr to unsilence paternal Ube3a or Ube3a-YFP.
Fluorescence immunocytochemistry and high content imaging analysis: Fluorescent immunocytochemistry and high content imaging analysis were performed by following previously described protocols with slight modifications. After 72 hr drug treatment, the neurons were fixed with 4% paraformaldehyde in 1×PBS at room temperature for 10 min. After brief washing with 1×PBS three times, neurons were permeabilized with 1% Triton-X 100 in 1×PBS at room temperature for 15 min, followed by blocking with 5% normal goat serum in 0.1% Triton-X 100 in 1×PBS at room temperature. 60 min after blocking, neurons were incubated with primary antibody, rabbit anti-GFP (1:1000, Novus Biologicals), at 4° C. overnight. Neurons were then briefly washed with 1×PBS followed by incubation with secondary antibody, goat anti-rabbit Alexa Fluor 488 (1:500, Thermo Fisher/Invitrogen) and Hoechst 33342 (Thermo Fisher), at room temperature for 60 min. Following secondary antibody incubation, neurons were washed with 1×PBS and fluorescent images were acquired using a BD Pathway 855 bioimager. All acquired images were analyzed by CellProfiler.
Fluorescence immunocytochemistry and high content imaging analysis: After 72-hour drug treatment, the neurons were fixed with 4% paraformaldehyde in phosphate-buffered saline (PBS) at room temperature for 10 min. After brief washing with PBS three times, neurons were permeabilized with 1% Triton-X 100 in PBS at room temperature for 10 min, followed by blocking with 5% normal goat serum in 0.1% Triton-X 100 in 1×PBS at room temperature. 30 min after blocking, neurons were incubated with primary antibodies rabbit anti-GFP (1:1000, NB 600308, Novus Biologicals) and mouse anti-NeuN (1:500, MAB 377, Millipore) at 4° C. overnight. Neurons were then briefly washed with 1×PBS followed by incubation with secondary antibodies goat anti-rabbit Alexa Fluor 488 (1:500, A11008, Thermo Fisher/Invitrogen) and anti-mouse Alexa Fluor 568 (1:500, A21124, ThermoFisher/Invitrogen) together with DAPI (4′,6-diamidino-2-phenylindole) at room temperature for 60 min. Following secondary antibody incubation, neurons were washed with 1×PBS and fluorescent images were acquired using Nikon Ti2 eclipse fluorescent microscope (Nikon Instruments Inc., Melville, NY, USA). Antibody-enhanced UBE3A-YFP fluorescence intensities were determined from DAPI and NeuN double-positive individual neurons in drug-treated wells and normalized to neurons in untreated wells. All acquired images were analyzed by Nikon NIS-Elements software (Nikon Instruments Inc., Melville, NY, USA). Sigmoidal curve fitting for the dose response analysis was performed using GraphPad Prism software version 8.0 (GraphPad Software, La Jolla, CA, USA). The calculated EC50 values (potencies) and Y value top plateau (estimated efficacies) enables comparative analyses of the relative potency and efficacy of the identified compounds.

paternal UBE3A = test: Western blot of UBE3A protein (anti-Ube3a) in AS model (Ube3a^m-/p+) cortical neurons; assay type: cell-based, mouse; conditions: 72 hr; Topotecan 0.3 μM, PHA533533 1.0 μM, Compound X 0.5 μM, Compound Y 0.5 μM; versus DMSO-treated WT neurons
Description: as §1
shRNA knockdown and western blot analysis: Lentiviral shRNAs of Top1 (TRCN0000011884), CDK2 (TRCN0000023146), and CDK5 (TRCN0000009520) were generated using previously described techniques. Cultured cortical neurons were infected at DIV 3 and virus was removed the next day (DIV 4). […] Following secondary antibody incubation, the membranes were rinsed (4-5 times) with 1×TBS-T at room temperature for 1 hr and ECL (Bio-Rad) was used to visualize detected proteins using an Amersham Imager 600 (AI600, GE Life Sciences).

Ube3a-YFP mRNA = test: Quantitative RT-PCR of Ube3a-YFP mRNA in cultured cortical neurons; assay type: cell-based, mouse; conditions: qPCR normalized to β-actin, after drug treatment
Description: as §1
(§2) Quantitative real-time PCR and topoisomerase-based DNA relaxation assay: Quantitative real-time PCR (qPCR) was performed using previously reported protocols. Briefly, total RNA was extracted from cultured cortical neurons carrying Ube3a^m+/pYFP after drug treatment using Direct-zol RNA kit (Zymo Research). cDNA pool was synthesized using 2 μg of total RNA and qScript cDNA Supermix (Quantabio). qPCR was performed using SsoAdvanced Universal SYBR green Supermix (Bio-rad). […] Relative quantity (RQ) was calculated after normalized ΔΔCt was calculated. […]

Ube3a-ATS = test: Quantitative RT-PCR of Ube3a-ATS mRNA in cultured cortical neurons; assay type: cell-based, mouse; conditions: qPCR normalized to β-actin, after drug treatment
Description: as §1, §2

Snord116 = test: Quantitative RT-PCR of Snord116 mRNA in cultured cortical neurons; assay type: cell-based, mouse; conditions: qPCR normalized to β-actin, after drug treatment
Description: as §1, §2

Snrpn = test: Quantitative RT-PCR of Snrpn mRNA in cultured cortical neurons; assay type: cell-based, mouse; conditions: qPCR normalized to β-actin, after drug treatment
Description: as §1, §2

Top2a = target: T1, Top2a (Homo sapiens, UniProt P11388); test: Topoisomerase-based DNA relaxation assay, Top2a (kDNA decatenation); assay type: biochemical; conditions: catenated versus decatenated kDNA on agarose gel
T1 construct: purchased TopoGEN
Description: Quantitative real-time PCR and topoisomerase-based DNA relaxation assay: Quantitative real-time PCR (qPCR) was performed using previously reported protocols. Briefly, total RNA was extracted from cultured cortical neurons carrying Ube3a^m+/pYFP after drug treatment using Direct-zol RNA kit (Zymo Research). cDNA pool was synthesized using 2 μg of total RNA and qScript cDNA Supermix (Quantabio). qPCR was performed using SsoAdvanced Universal SYBR green Supermix (Bio-rad). The primer sets were β-actin (forward, 5′-[…]-3′, SEQ ID NO:1; reverse, 5′-[…]-3, SEQ ID NO:2), YFP (forward, 5′-[…]-3′, SEQ ID NO:3; reverse, 5′-[…]-3′, SEQ ID NO:4), Ube3a-ATS (forward, 5′-[…]-3′, SEQ ID NO:5; reverse, 5′-[…]-3′, SEQ ID NO:6), Snrpn (forward, 5′-[…]-3′, SEQ ID NO:7; reverse, 5′-[…]-3′, SEQ ID NO:8), and Snord116 (forward, 5′-[…]-3′, SEQ ID NO:9; reverse, 5′-[…]-3′, SEQ ID NO:10). qPCR was performed using QuantStudio thermocycler (Thermo Fisher) with the following conditions: 95° C. for 5 min and followed by 40 cycles of 95° C. 10 sec, 60° C. 1 min. Relative quantity (RQ) was calculated after normalized ΔΔCt was calculated. Topoisomerase (Top)-based DNA relaxation assays were performed to test whether the drugs inhibited Top1, Top2a, and Top2b. Top1 and Top2a assay kits were purchased from TopoGEN, and Top2b enzyme was purchased from Inspiralis. All Top-based assays followed manufacturer protocols.

[3] = test system: cultured mouse cortical neurons; assay type: cell-based
Description: Cytotoxicity test: Cytotoxicity of drugs was tested in cultured mouse cortical neurons in vitro. The manufacturer's protocol was followed to measure luminescence proportional to the number of dead cells using Cyto Tox-Glo assay (Promega). 72 hr after drug treatment, AAF-Glo substrates were directed added to the drug-treated (or 0.1% DMSO vehicle-treated) cortical neurons and incubated them at room temperature for 15 min. Luminescence produced by dead-cell protease activity was then measured.

T1 sequence (P11388 whole entry): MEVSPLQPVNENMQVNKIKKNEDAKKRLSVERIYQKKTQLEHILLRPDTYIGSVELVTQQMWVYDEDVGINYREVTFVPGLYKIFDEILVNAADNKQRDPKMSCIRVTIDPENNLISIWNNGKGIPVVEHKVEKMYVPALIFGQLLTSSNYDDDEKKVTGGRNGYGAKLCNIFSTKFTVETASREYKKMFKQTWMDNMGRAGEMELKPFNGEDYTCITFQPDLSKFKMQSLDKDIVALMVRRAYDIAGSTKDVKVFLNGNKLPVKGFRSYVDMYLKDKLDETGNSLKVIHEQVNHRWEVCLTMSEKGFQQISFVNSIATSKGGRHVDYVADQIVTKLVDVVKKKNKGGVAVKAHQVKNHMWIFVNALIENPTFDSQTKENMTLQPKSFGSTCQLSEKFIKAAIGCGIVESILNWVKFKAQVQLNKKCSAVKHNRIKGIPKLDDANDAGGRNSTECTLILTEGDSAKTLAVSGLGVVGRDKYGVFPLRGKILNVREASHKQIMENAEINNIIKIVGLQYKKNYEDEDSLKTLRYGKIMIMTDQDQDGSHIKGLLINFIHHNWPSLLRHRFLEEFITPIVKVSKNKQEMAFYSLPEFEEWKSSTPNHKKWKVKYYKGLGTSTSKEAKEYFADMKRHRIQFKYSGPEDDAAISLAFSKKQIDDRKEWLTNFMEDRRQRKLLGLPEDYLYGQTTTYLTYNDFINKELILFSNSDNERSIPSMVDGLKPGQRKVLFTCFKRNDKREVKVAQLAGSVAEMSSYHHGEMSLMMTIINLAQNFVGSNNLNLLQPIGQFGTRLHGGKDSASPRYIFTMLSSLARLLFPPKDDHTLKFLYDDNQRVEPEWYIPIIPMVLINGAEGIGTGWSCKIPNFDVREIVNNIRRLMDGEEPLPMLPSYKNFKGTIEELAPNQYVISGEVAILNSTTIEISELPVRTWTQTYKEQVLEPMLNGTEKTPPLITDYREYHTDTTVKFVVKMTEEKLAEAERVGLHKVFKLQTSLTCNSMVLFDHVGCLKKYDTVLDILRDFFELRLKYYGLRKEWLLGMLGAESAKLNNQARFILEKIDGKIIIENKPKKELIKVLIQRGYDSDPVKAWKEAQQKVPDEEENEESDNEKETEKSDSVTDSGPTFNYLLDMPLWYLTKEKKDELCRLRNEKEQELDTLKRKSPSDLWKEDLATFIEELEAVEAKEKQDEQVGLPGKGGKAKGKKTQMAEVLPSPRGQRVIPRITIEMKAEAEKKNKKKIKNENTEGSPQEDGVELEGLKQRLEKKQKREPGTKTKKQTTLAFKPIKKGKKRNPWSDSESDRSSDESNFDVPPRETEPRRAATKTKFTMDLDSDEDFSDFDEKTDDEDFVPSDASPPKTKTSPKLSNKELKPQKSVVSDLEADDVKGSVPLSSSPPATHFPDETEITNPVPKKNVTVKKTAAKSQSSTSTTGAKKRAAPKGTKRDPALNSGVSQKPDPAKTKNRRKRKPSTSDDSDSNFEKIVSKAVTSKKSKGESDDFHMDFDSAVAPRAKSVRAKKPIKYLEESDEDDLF

Molecule: C[C@H](C(=O)Nc1cc(C2CC2)[nH]n1)c1ccc(N2CCOC2=O)cc1 [Compound P5-A4, (S)—N-(5-cyclopropyl-1H-pyrazol-3-yl)-2-(4-(2-oxooxazolidin-3-yl)phenyl)propenamide]
- UBE3A-YFP protein from the paternal allele (western blot) (paternal Ube3a-YFP [1]): did not appreciably unsilence paternal Ube3a-YFP

Molecule: CC(C)N(C[C@H]1O[C@@H](n2cnc3c(N)ncnc32)[C@H](O)[C@@H]1O)[C@H]1C[C@@H](CCc2nc3cc(C(C)(C)C)ccc3[nH]2)C1 [EPZ5676, reference compound]
- UBE3A-YFP protein from the paternal allele (western blot) (paternal Ube3a-YFP [1]): did not appreciably unsilence paternal Ube3a-YFP
- methylation level on histone H3 lysine 79 (H3K79) (DOT1L): reduced methylation level on histone H3 lysine 79 (H3K79)

- inhibition of Top2a (Top2a): partially inhibited Top2a
Molecule: C[C@H](C(=O)Nc1cc(C2CC2)[nH]n1)c1ccc(N2CCCC2=O)cc1 [PHA533533]
- percent of neurons expressing UBE3A-YFP above threshold (paternal Ube3a-YFP [2]): 63.7±14.3%
- potency (EC50) compared to topotecan, in words (paternal Ube3a-YFP [2]; dose response, normalized fluorescent intensity): slightly lower potency than topotecan
- unsilencing of paternal Ube3a-YFP by imaging, in words (paternal Ube3a-YFP [2]): effectively unsilenced paternal Ube3a-YFP; also recorded: can unsilence paternal Ube3a-YFP
- UBE3A-YFP protein from the paternal allele (western blot) (paternal Ube3a-YFP [1]): increased UBE3A-YFP protein to levels approaching that of topotecan; also recorded: can produce UBE3A-YFP
- unsilencing of paternal Ube3a-YFP with CDK2 knocked down (paternal Ube3a-YFP [1]): did not unsilence paternal Ube3a-YFP unless neurons were treated
- unsilencing of paternal Ube3a-YFP with CDK5 knocked down (paternal Ube3a-YFP [1]): further enhanced
- UBE3A protein from the paternal allele in AS model neurons (western blot) (paternal UBE3A): unsilenced paternal UBE3A at levels that approached that of UBE3A levels in DMSO-treated neurons from WT mice
- mRNA of Ube3a-YFP (Ube3a-YFP mRNA): upregulated
- Ube3a-ATS mRNA (Ube3a-ATS): significantly decreased; also recorded: downregulates Ube3a-ATS
- Snord116 mRNA (Snord116): decreased
- Snrpn mRNA (Snrpn): decreased
- methylation level on histone H3 lysine 79 (H3K79) (DOT1L): reduced methylation level on histone H3 lysine 79 (H3K79)

Molecule: O=C(Cc1ccc2ccccc2c1)Nc1cc(C2CC2)[nH]n1 [PNU0292137]
- unsilencing of paternal Ube3a-YFP by imaging, in words (paternal Ube3a-YFP [2]): could not produce appreciable increases

Molecule: CC[C@@]1(O)C(=O)OCc2c1cc1n(c2=O)Cc2cc3c(CN(C)C)c(O)ccc3nc2-1 [topotecan, reference compound]
- percent of neurons expressing UBE3A-YFP above threshold (paternal Ube3a-YFP [2]): 37.3±3.7%
- unsilencing of paternal Ube3a-YFP by imaging, in words (paternal Ube3a-YFP [2]): unsilenced paternal UBE3A-YFP
- LC50 / cytotoxicity compared to topotecan, in words [3]: comparable LC50
- unsilencing of paternal Ube3a-YFP with CDK2 knocked down (paternal Ube3a-YFP [1]): did not unsilence paternal Ube3a-YFP unless neurons were treated
- unsilencing of paternal Ube3a-YFP with CDK5 knocked down (paternal Ube3a-YFP [1]): further enhanced
- unsilencing of paternal Ube3a-YFP with Top1 knocked down (paternal Ube3a-YFP [1]; Top1 shRNA knockdown): occlude unsilencing; also recorded: occluded the ability
- UBE3A protein from the paternal allele in AS model neurons (western blot) (paternal UBE3A): unsilenced paternal UBE3A at levels that approached that of UBE3A levels in DMSO-treated neurons from WT mice
- mRNA of Ube3a-YFP (Ube3a-YFP mRNA): upregulated
- Ube3a-ATS mRNA (Ube3a-ATS): significantly decreased
- Snord116 mRNA (Snord116): decreased
- Snrpn mRNA (Snrpn): decreased

Molecule: ICRF-193 [reference compound]
- inhibition of Top2a (Top2a): inhibits the relaxation of catenated kDNA
